Tests used:
P388 [1] = assay: In vivo antitumor activity against mouse P388 lymphocytic leukemia in mouse at 1.4 mg/kg; type: functional
P388 [2] = assay: Cytotoxicity against mouse P388 cells; type: functional

CCCCCCCCCCC(O)C1CCC(C2CCC(C(O)C(=O)CCCCCCCCCCCC3CC(C)OC3=O)O2)O1 (configuration not stated) [ROLLINONE]
T/C (P388 [1]): 147%
ED50 (P388 [2]): <1 ×10⁻⁵ ug/ml
